Data as given in patent publication US7465814B2, “Sulfonate compound and fluorescent probe using the same” (priority 2003, dated 2008).

What was measured:
[1] = Reactivity with superoxide and glutathione (FIG. 4); assay type: biochemical; conditions: for selectivity (specificity), superoxide versus glutathione, FIG. 4: same conditions as 1-3 Superoxide-selectivity (2)
Protocol: (§1) Moreover, in other conditions than those of the above-described tests, reactivity of all of the compounds 1a to 1d with H2O2, other various kinds of nucleophilic agents, reducing agents and the like also was tested, respectively. More specifically, fluorescent responses of 1a to 1d with respect to a XO-HPX system, a XO-HPX-SOD system, H2O2, ascorbic acid, 1,4-hydroquinone, propylamine, diethylamine, glucose, esterase, a cytochrome P450 reductase+NADPH system, and a diaphorase+NADH system were measured, respectively. Operational processes thereof will be described below. Firstly, 1a to 1d and the above-described reagents were dissolved in HEPES of 10 mM having a pH of 7.4 so as to prepare solutions, respectively. Next, a 96 wellmicroplate was provided, where any of the solutions of 1a to 1d (25 μM, 170 μL) was poured into each of the wells, and furthermore, 30 μL of a blank solution or 30 μL of the solution of the reagent to be reacted therewith was added thereto. Final concentrations of the solutions in the wells were adjusted so that concentrations of the solutions of 1a to 1d respectively could be 21.3 μM, that of XO could be 13.1 mU/mL, those of HPX, H2O2, ascorbic acid, 1,4-hydroquinone, propylamine, diethylamine, glucose, NADPH and NADH respectively could be 50 μM, that of cytochrome P450 reductase could be 68 mU/mL, that of diaphorase could be 65 mU/mL, and that of esterase could be 0.5 U/mL, respectively. Then, after they reacted in the wells at 37° C. for 10 minutes, fluorescent responses were measured respectively. Fluorescence intensity measurement was conducted by using an ETC-272 Peltier thermostatted single cell holder (trade name) manufactured by JASCO Corporation or a SpectraMax GeminiEM fluorescence plate reader (trade name) manufactured by Molecular Devices Corporation provided with a FP-750 spectrofluorometer (trade name) manufactured by JASCO Corporation, and by setting excitation wavelengths and emission wavelengths so that those of 1a, 1b and 1c respectively could be 485 nm and 515 nm, and those of 1d respectively could be 511 nm and 540 nm.
(§2) The reactivity of each of the compounds 1d, 5a, 6a, 7 and 8a with respect to superoxide and glutathione (GSH) that is a kind of thiol was tested under the same conditions as those of [1-3. Superoxide-selectivity (2)] in Example 1. […] A vertical axis thereof denotes a fluorescence intensity, which is represented in % of control.

[2] = Fluorescence response to thiophosphonate group (FIG. 8); assay type: biochemical; conditions: for sensitivity of γ-S-ATP detection relative to 8a: similar tests; for response to thiol group in thiophosphonate group: γ-S-ATP and adenosine monothiophosphate (S-AMP)
Excerpt: Moreover, a capability of the sulfonate compound of the present invention as a fluorescent probe for mercapto compounds other than thiol (a compound in which a —SH group is bonded to a carbon atom) was examined. […]

[3] = Responses to the compounds listed in Table 1; assay type: biochemical; conditions: same conditions as Example 1
Protocol: as §1, §2

[4] = Fluorescent response to glucose (Table 1); assay type: biochemical; conditions: relative fluorescence intensity, blank = 10; probe 21.3 μM, glucose 50 μM, 37° C., 10 minutes
Protocol: as §1

[5] = Fluorescent response to ascorbic acid (Table 1); assay type: biochemical; conditions: relative fluorescence intensity, blank = 10; probe 21.3 μM, ascorbic acid 50 μM, 37° C., 10 minutes
Protocol: as §1

[6] = Fluorescent response to 1,4-hydroquinone (Table 1); assay type: biochemical; conditions: relative fluorescence intensity, blank = 10; probe 21.3 μM, 1,4-hydroquinone 50 μM, 37° C., 10 minutes
Protocol: as §1

[7] = Fluorescent response to XO-HPX system, 96-well microplate (Table 1); assay type: biochemical; conditions: relative fluorescence intensity, blank = 10, probe 21.3 μM, 10 minutes; for fluorescent response, XO—HPX: XO 13.1 mU/mL, HPX 50 μM, HEPES pH 7.4, 37° C.; for fluorescent response, XO—HPX—SOD: XO-HPX with SOD, 37° C.
Protocol: as §1

esterase = experiment: Fluorescent response to esterase (Table 1); assay type: biochemical; conditions: relative fluorescence intensity, blank = 10; probe 21.3 μM, esterase 0.5 U/mL, 37° C., 10 minutes
Protocol: as §1

Voltammetry measurement = assay type: physicochemical; conditions: CH3CN—H2O (3:1) containing Et4NClO4
[8] = Fluorescent response to diethylamine (Table 1); assay type: biochemical; conditions: relative fluorescence intensity, blank = 10; probe 21.3 μM, diethylamine 50 μM, 37° C., 10 minutes
Protocol: as §1

[9] = Fluorescent response to H2O2 (Table 1); assay type: biochemical; conditions: relative fluorescence intensity, blank = 10; probe 21.3 μM, H2O2 50 μM, 37° C., 10 minutes
Protocol: as §1

[10] = Fluorescent response to propylamine (Table 1); assay type: biochemical; conditions: relative fluorescence intensity, blank = 10; probe 21.3 μM, propylamine 50 μM, 37° C., 10 minutes
Protocol: as §1

neutrophils = tested on: neutrophils
Protocol: Moreover, a toxicity of the compound 1d with respect to the neutrophils was evaluated by estimating cell viability by a trypan blue dyeing method. More specifically, the neutrophils (1.0×10^5 cells) were incubated at 37° C. for 120 minutes in a glass test tube coated with human serum albumin, in the presence of both of the compound 1d (6.25 μM) and PMA (0.16 μM), in the presence of either of them, and in the absence of them, respectively. Then, cell viability after the incubation with respect to cell viability before the incubation was measured.

[11] = Capability as superoxide-detecting fluorescent probe (reactivity with superoxide); assay type: biochemical; conditions: tested similarly to the compound 1d
Protocol: Then, by mainly using the compound 1d as a testing compound, the capability thereof as a superoxide-selective fluorescent probe was evaluated, and moreover, a test in a cell system also was conducted. These tests will be described below.
Thus, it is thought that each compound synthesized from a combination of: a phenolic colorant; and a 2,4-dinitrobenzenesulfonyl group, a 4-trifluoromethyl-2-nitrobenzenesulfonyl group or a 4-nitrobenzenesulfonyl group can be used as a superoxide-detecting fluorescent probe similarly. An example of the usage thereof will be shown in Scheme 8 below. Furthermore, it can be expected that a compound for a fluorescent probe having characteristics that are suitable for its application purpose can be designed and developed freely, by designing the compound of the present invention freely within the limitation defined by the general formula (I) and using the fluorescence mechanism developed by the inventors of the present invention, without being limited to the above-described combinations. Examples of the application purpose of the compound of the present invention are varied, including an application to a faintly coloring technique using superoxide.

SMILES: Cc1cc2c(-c3ccccc3C(=O)O)c3cc(C)c(=O)cc-3oc2cc1OS(=O)(=O)c1ccc([N+](=O)[O-])cc1[N+](=O)[O-] [Compound 8b]
- response to glutathione [1]: responded to glutathione with high sensitivity
- sensitivity of γ-S-ATP detection relative to 8a [2]: sensitivity still higher than that of 8a
- response with respect to each of the compounds listed in Table 1 [3]: almost no response

SMILES: O=C1OC2(c3ccc(OS(=O)(=O)c4ccc([N+](=O)[O-])cc4[N+](=O)[O-])cc3Oc3cc(OS(=O)(=O)c4ccc([N+](=O)[O-])cc4[N+](=O)[O-])ccc32)c2ccccc21 [Compound 1a]
- fluorescent response, glucose [4]: 10
- fluorescent response, ascorbic acid [5]: 10
- fluorescent response, 1,4-hydroquinone [6]: 10
- fluorescent response, XO—HPX [7]: 70
- fluorescent response, XO—HPX—SOD [7]: 12
- fluorescent response, esterase (esterase): 17
- cathode response (Voltammetry measurement): about −0.5 V vs SCE
- fluorescent response, diethylamine [8]: 11
- fluorescent response, H2O2 [9]: 10
- fluorescent response, propylamine [10]: 10

SMILES: CCCCCCCCCCCCCC(=O)O[C@@H]1[C@@H](C)[C@@]2(O)[C@@H](C=C(CO)C[C@]3(O)C(=O)C(C)=C[C@@H]23)[C@@H]2C(C)(C)[C@]12OC(C)=O [PMA, phorbol myristate acetate, reference compound]
- toxicity with respect to the neutrophils (neutrophils; incubation of 120 minutes): did not show any significant toxicity
- cell viability after the incubation with respect to before the incubation (neutrophils; substance only (1d 6.25 μM or PMA 0.16 μM), 1.0×10^5 neutrophils, 37° C., 120 minutes): 93%

SMILES: O=c1ccc2nc3ccc(OS(=O)(=O)c4ccc([N+](=O)[O-])cc4[N+](=O)[O-])cc3oc-2c1 [Compound 5a]
- selectivity (specificity), superoxide versus glutathione, FIG. 4 [1]: excellent mercapto compound-selectivity
- response to thiol group in thiophosphonate group [2]: responded to a thiol group in a so-called thiophosphonate group
- deprotection by superoxide into the corresponding fluorochrome [11]: deprotected by superoxide
- response with respect to each of the compounds listed in Table 1 [3]: almost no response

SMILES: Cc1cc(=O)oc2cc(OS(=O)(=O)c3ccc([N+](=O)[O-])cc3[N+](=O)[O-])ccc12 [Compound 7]
- selectivity (specificity), superoxide versus glutathione, FIG. 4 [1]: excellent mercapto compound-selectivity
- response to thiol group in thiophosphonate group [2]: responded to a thiol group in a so-called thiophosphonate group
- response with respect to each of the compounds listed in Table 1 [3]: almost no response

SMILES: O=C(O)c1ccccc1-c1c2cc(F)c(=O)c(F)c-2oc2c(F)c(OS(=O)(=O)c3ccc(C(F)(F)F)cc3[N+](=O)[O-])c(F)cc12 [Compound 4a]
- deprotection by superoxide into the corresponding fluorochrome [11]: deprotected by superoxide

SMILES: O=c1cc(C(F)(F)F)c2ccc(OS(=O)(=O)c3ccc(C(F)(F)F)cc3[N+](=O)[O-])cc2o1 [Compound 6b]
- deprotection by superoxide into the corresponding fluorochrome [11]: deprotected by superoxide

SMILES: O=C1OC2(c3ccccc31)c1cc(F)c(OS(=O)(=O)c3ccc(C(F)(F)F)cc3[N+](=O)[O-])c(F)c1Oc1c2cc(F)c(OS(=O)(=O)c2ccc(C(F)(F)F)cc2[N+](=O)[O-])c1F [Compound 3]
- deprotection by superoxide into the corresponding fluorochrome [11]: deprotected by superoxide

SMILES: Cc1c2oc3c(C)c(OS(=O)(=O)c4ccc([N+](=O)[O-])cc4[N+](=O)[O-])ccc3c(-c3ccccc3C(=O)O)c-2ccc1=O [Compound 8c]
- response to glutathione [1]: responded to glutathione with high sensitivity
- sensitivity of γ-S-ATP detection relative to 8a [2]: sensitivity still higher than that of 8a
- response with respect to each of the compounds listed in Table 1 [3]: almost no response

SMILES: O=C1OC2(c3cc(F)c(OS(=O)(=O)c4ccc([N+](=O)[O-])cc4[N+](=O)[O-])cc3Oc3cc(OS(=O)(=O)c4ccc([N+](=O)[O-])cc4[N+](=O)[O-])c(F)cc32)c2ccccc21 [Compound 1c]
- fluorescent response, glucose [4]: 10
- fluorescent response, ascorbic acid [5]: 11
- fluorescent response, 1,4-hydroquinone [6]: 10
- fluorescent response, XO—HPX [7]: 797
- fluorescent response, XO—HPX—SOD [7]: 48
- fluorescent response, esterase (esterase): 23
- cathode response (Voltammetry measurement): about −0.5 V vs SCE
- fluorescent response, diethylamine [8]: 10
- fluorescent response, H2O2 [9]: 11
- fluorescent response, propylamine [10]: 10

SMILES: O=C(O)c1ccccc1-c1c2cc(F)c(=O)c(F)c-2oc2c(F)c(OS(=O)(=O)c3ccc([N+](=O)[O-])cc3)c(F)cc12 [Compound 4b]
- deprotection by superoxide into the corresponding fluorochrome [11]: deprotected by superoxide

SMILES: O=C1OC2(c3cc(Cl)c(OS(=O)(=O)c4ccc([N+](=O)[O-])cc4[N+](=O)[O-])cc3Oc3cc(OS(=O)(=O)c4ccc([N+](=O)[O-])cc4[N+](=O)[O-])c(Cl)cc32)c2ccccc21 [Compound 1b]
- fluorescent response, glucose [4]: 10
- fluorescent response, ascorbic acid [5]: 11
- fluorescent response, 1,4-hydroquinone [6]: 11
- fluorescent response, XO—HPX [7]: 288
- fluorescent response, XO—HPX—SOD [7]: 22
- fluorescent response, esterase (esterase): 20
- cathode response (Voltammetry measurement): about −0.5 V vs SCE
- fluorescent response, diethylamine [8]: 10
- fluorescent response, H2O2 [9]: 11
- fluorescent response, propylamine [10]: 10

SMILES: O=c1ccc2nc3ccc(OS(=O)(=O)c4ccc(C(F)(F)F)cc4[N+](=O)[O-])cc3oc-2c1 [Compound 5b]
- deprotection by superoxide into the corresponding fluorochrome [11]: deprotected by superoxide
